In US20250213452A1, “BIFUNCTIONAL PEPTIDES FOR BIOMIMETIC RECONSTRUCTION OF SILVER DIAMINE FLUORIDE TREATED DENTAL TISSUES” (University of Kansas, priority 2022, published 2025):
Read-outs that look alike come from different tables or passages of the source. One block for each substance: values may come before it.

Experiments:
[1] = Enzyme-mediated (alkaline phosphatase) mineralization on Ag-coated silica substrates, SEM/EDS; details: 50 μM bifunctional peptide
Experimental: (§1) Lyophilized peptide stocks were selected and reconstituted in Milli-Q (resistance, >18 MQ) water immediately prior to experiments with both silver-coated silica substrates and slabs of dental tissue. Stock solutions were prepared to a final concentration of 100 μM peptide. Silica substrates or slabs of dental tissue were submerged into a solution containing 50 μM peptide and allowed 2-4 hours gentle shaking at room temperature to ensure the binding of AgBP. This excess concentration and incubation time was used to ensure ample peptide binding.
To confirm the selectivity and specificity for silver-binding of bifunctional peptides, preliminary studies were conducted on silver-coated silica substrates. Silica wafers were cut into 1 cm square pieces using a diamond scribe and a published protocol for […] deposition of silver onto silica was followed.^66,67 Briefly, the Si(111) wafers were cleansed in hydrogen peroxide and sulfuric acid solution (3:7) for 20 minutes, rinsed thoroughly with Milli-Q water, and dried with N2 gas prior to use. An etching step was employed prior to Ag-deposition, where a drop of 5% NH4F solution was placed on the surface of the cleaned silica substrate for 30 s and removed carefully with N2 gas. […]

[2] = Enzyme-mediated mineralization on SDF-treated dental tissue slabs, SEM/EDS Ca/P ratio of mineral layer; parameters: species or system human; details: for Averaged calculated Ca/P ratio: Mineralized sample
Experimental: as §1
NaCl containing 0.002% sodium azide.
To investigate calcium phosphate nucleation facilitated by the MP, an alkaline phosphatase (AP) based mineralization model was followed.^44 This model mimics the biological process wherein inorganic phosphate is cleaved from organic phosphate by naturally occurring AP and subsequently reacts with free calcium. Briefly, control samples without peptide and test samples functionalized with MP were submerged in a remineralization buffer containing 14.4 mM β-glycerophosphate (β-GP) and 24 mM Ca^2+ in 25 mM Tris-HCl at pH 7.4. Mineralization reactions were initiated by adding alkaline phosphatase (fastAP; ThermoFisher, USA) to the solutions to achieve a final concentration of 1.4×10^−6 g/mL and allowed to react at 37° C. for 2 hours to form a calcium phosphate mineral layer on the sample surface. Samples were removed from the solution and allowed to air dry prior to microscopic and spectroscopic analyses.
For the bifunctional peptide treated group, SDF-treated dental tissues were functionalized with either 0 μM or 50 μM bifunctional peptide prior to the mineralization protocol. […] On average, the Ca/P ratios from the mineralized layer observed in both the peptide-treated and SDF-treated tissue as well as the SDF-only treated tissues, were about 0.1-0.15 less than what was obtained for the untreated and peptide-functionalized Ag-coated silica samples. The presence of calcium phosphate rich minerals in the slabs of dental tissue may alter the availability of free calcium and phosphate in the enzyme-mediated mineralization reaction. […] Differences in the mineralization may also be attributed to the anchoring effect of the AgBP peptide being bound to the SDF-treated regions of the dental tissue.

[3] = cell-free assay, demineralized human dentin root surfaces; cited from earlier work
[4] = SDF-treated Control
Experimental: Specimens of dental tissues were prepared using a protocol modified slightly from previous publications.^45 The specimens consisted of extracted human molars. […] The extracted teeth were stored at 4° C. in 0.9% wt./vol. NaCl containing 0.002% sodium azide. […] The tooth was sectioned parallel to the long axis to provide 1.4 mm thick slabs. The prepared sections were stored in a modified phosphate buffered saline (PBS) buffer (20 mM Na2HPO4, 137 mM NaCl, 2.7 mM KCl, and 1.8 mM KH2PO4, pH 7.4) at 4° C. until experimental use.
SDF was applied to dental tissue following the detailed guidelines published by the UCSF Caries Arrest Committee.^25,34 Briefly, the prepared slabs of dental tissue were removed from the modified PBS buffer, rinsed with Milli-Q purified water, and gently dried with compressed air to reveal suitable carious regions of the dental tissues. A single drop of commercially available 38% SDF solution (Dengen Caries Arrest; Dengen Dental, Bahadurgarh, Haryana, India) was placed into a fresh plastic dish. A microbrush applicator head was dipped into the solution and touched to the side of the dish to remove excess fluid by surface tension. The SDF was applied to the dental tissue, allowed to absorb for 1 minute and the treated sample was gently rinsed with Milli-Q purified water. The tissue was placed back into modified PBS buffer and incubated at 37° C. for 6 hours to mimic the oral environment and to allow for SDF activity.
To image the mineral morphology, surface coverage, and to determine the Ca/P ratios of the precipitated material, a Hitachi SU8230 Field Emission Scanning Electron Microscope (Hitachi High-Tech America, IL, USA) equipped with a silicon drift EDS detector (X-Max, Oxford Instruments, MA, USA) was used. SEM imaging was completed at 5 kV and EDS measurements made with an acceleration voltage of 10 kV to improve signal. Prior to SEM/EDS analysis, samples were sputter-coated with 5 nm iridium using a Quorum sputter coating system (Q150, Quorum, UK). EDS analysis was performed using AZtec software (Oxford Instruments, MA, USA) and values were averaged across a minimum of three regions for each sample.
Treated dental tissues were analyzed using SEM for imaging and EDS for compositional analysis. Average Ca/P molar ratios were calculated for each slab of dental tissue from both SDF-treated and untreated regions of enamel and dentin, corresponding to SDF treatment of carious dental tissues, to assess mineral formation and compositional changes on the tooth samples in the presence and absence of the bifunctional peptide.

average Ca/P ratio of mineral layer ([1]; EDS): about 1.40
mineral coverage compared to control samples ([1]; alkaline phosphatase-based mineralization, SEM): significantly higher mineral coverage
Averaged calculated Ca/P ratio ([2]; SDF-treated Peptide-functionalized (50 μM), Dentin): 1.291
Averaged calculated Ca/P ratio ([2]; SDF-treated Peptide-functionalized (50 μM), Enamel): 1.338
Averaged calculated Ca/P ratio ([2]; SDF-treated Peptide-functionalized (50 μM), SDF-stained dentin): 1.238
Averaged calculated Ca/P ratio ([2]; SDF-treated Peptide-functionalized (50 μM), SDF-stained enamel): 1.257
Substance: SYEKSHSQAINTDRTAPAEQLGVRKELRGV [MP_APA_AgBP, bifunctional peptide, MP and AgBP domains joined by APA spacer]
mineralization onto SDF treated dental tissues ([2]; four SDF treated slabs of carious dental tissue, bright field optical microscopy, FIG. 7): demonstrated the capacity to direct mineralization

Substance: SYEKSHSQAINTDRT [MP, mineralizing peptide domain, 15 amino acids, derived from amelogenin]
hydroxyapatite mineral layer formation [3]: regulated formation of a robust hydroxyapatite mineral layer

Substance: silver diamine fluoride [SDF]
Averaged calculated Ca/P ratio ([2]; SDF-treated, 0 μM peptide, Dentin): 1.066
Averaged calculated Ca/P ratio ([2]; SDF-treated, 0 μM peptide, Enamel): 1.092
Averaged calculated Ca/P ratio ([2]; SDF-treated, 0 μM peptide, SDF-stained dentin): 1.137
Averaged calculated Ca/P ratio ([2]; SDF-treated, 0 μM peptide, SDF-stained enamel): 1.100
Averaged calculated Ca/P ratio ([4]; Dentin (untreated region)): 1.419
Averaged calculated Ca/P ratio ([4]; Enamel (untreated region)): 1.447
Averaged calculated Ca/P ratio ([4]; SDF-stained dentin): 1.546
Averaged calculated Ca/P ratio ([4]; SDF-stained enamel): 1.540
